“Also recorded” adds a separate entry of the source.
Legend:
[1] = system: chemokine receptor internalisation; settings: ref [27]; cited from earlier work
From the text: Since BSCIs, such as Peptide 3, ...

[2] = system: RANTES-induced chemotaxis; test: RANTES-/MIP1α-induced chemotaxis (ChemoTx transwell); format: cell-based; settings: RANTES per text, 25 ng/ml MIP1α per Fig 2f legend; 5 × 10^4 cells per well; 2 h, 37°C; MTT; triplicate
Method: Figure 2 Effect of Peptide 3 on gp120:V3 loop peptide binding to cells. (a) The binding of 100 μM N-terminal biotinylated gp120:V3(IIIb) to THP-1 cells was measured in the presence of various concentrations of peptide 3. In each case, the non-specific binding (in the presence of 10 mM unlabelled gp120:V3 loop peptide) has been subtracted. (b) Chemotaxis in response to 100 ng/ml SDF1α was measured in the presence of various concentrations of peptide 3. […] (e) As for (a) except that the effect of Peptide 3 on the binding of gp120:V3(BaL) to THP-1 cells was determined. (f) As for (b) except that the effect of Peptide 3 on chemotaxis induced by 25 ng/ml MIP1α was determined. All binding reactions were performed with 10^6 cells in 100 μl of binding medium at 4°C. Chemotaxis assays were performed with 5 × 10^4 cells per well. Values are mean ± SEM of triplicate determinations.
Chemotaxis experiments were performed essentially as previously described, using the ChemoTx disposable 96-well transwell migration plates, with PVP-free membrane (6 μm pore size). […] The number of cells which had migrated to the lower compartment was determined using the vital dye MTT and interpolation of a standard curve. Each condition was determined in triplicate, and the number of cells migrating in the absence of chemoattractant was subtracted to determine the chemokine-dependent chemotaxis which was reported.

[3] = system: CCR5; test: Specific binding of biotinylated gp120:V3(BaL) peptide to THP-1 cells; settings: 100 μM biotinylated gp120:V3(BaL); various concentrations of Peptide 3; 10^6 cells in 100 μl, 4°C; non-specific binding (10 mM unlabelled peptide) subtracted
Method: The binding of gp120 to chemokine receptors is likely to involve sequences in the V3 loop of gp120 [28, 20]. We therefore synthesised peptide sequences from the V3 loop of the M-tropic BaL strain and the T-tropic IIIb strain and analysed the binding of these biotinylated peptides to the THP-1 and Jurkat cells. Specific (competable) binding of gp120:V3(BaL) to THP-1 cells was detected at 100 μM (Fig 1a). In contrast, specific binding of gp120:V3(BaL) to Jurkat cells was not detected even at concentrations up to 500 μM (Fig 1a). […]
Figure 1 Specific binding of gp120:V3 loop peptides to THP-1 and Jurkat cells. […] Specific binding is expressed as the absorbance in the absence of unlabelled peptide minus the absorbance in the presence of competitor (b) Binding of gp120:V3(IIIb)-biotin under the same conditions as in (a). […]
Cells (either Jurkat T-cells or THP-1 cells) were grown in RPMI 1640 medium supplemented with 10% fetal calf serum, 2 mM glutamine, 20 μM β-mercaptoethanol, 100 U/ml penicillin and 100 μg/ml streptomycin and maintained between 2 × 10^5 and 1 × 10^6 cells/ml. […] The plate was spun (3,000 × g; 3 mins) and 200 μl of the coloured product was transferred to an empty 96-well ELISA plate and the absorbance at 450 nm determined.

[4] = system: CXCR4-dependent infection of Jurkat T cells; test: CXCR4-dependent HIV infection of Jurkat T cells (assay not specified); format: cell-based, HIV-1
Method: HIV infection of Jurkat T-cells using the laboratory-adapted T-tropic isolate IIIb was monitored using two different assays. Firstly, Jurkat T-cells in 96-well plates were pre-treated with either Peptide 3, vehicle (as a negative control) or SDF1α (as a positive control) for 4 hours, then exposed to HIV virus (10^6 TCID50) and pulsed at 2–3 day intervals with Peptide 3, SDF1α or medium alone as appropriate. After two weeks in culture, the extent of viral infection was assayed by measuring the reverse transcriptase activity in the supernatant, as a measure of viral replication in the culture In six separate experiments, Peptide 3 (100 μM) had no effect on virus replication following HIV exposure (Fig 3a), while SDF1α inhibited reverse transcriptase activity by an average of 75%. […]
HIV infection of Jurkat T-cells was also monitored by high sensitivity quantitative immunofluoresence detection of viral p24^gag expression. […] Expression of p24^gag was determined using quantitative immunofluoresence as previously described, except that the primary antibody was post-fixed to the section using paraformaldehyde to increase the sensitivity of the technique (see Methods). Viral infectivity was expressed as the number of cells stained for p24^gag expressed as a proportion of the total number of cells (detected using Hoechst 33342 nuclear dye). […]

Sequence: EICADPKQKWVQ [Peptide 3]
- Effect on chemokine receptor internalisation induced by ligand binding [1]: do not block
- Effect on RANTES-induced chemotaxis [2]: powerfully inhibited; also recorded: profoundly blocked
- Effect on gp120 binding to CCR5 (gp120:V3(BaL) to THP-1 cells) [3]: no effect; also recorded: unaffected
- Effect on CXCR4-dependent HIV infection of Jurkat T cells [4]: did not affect; also recorded: no effect

Reference: PMC1082716, “Blockade of chemokine-induced signalling inhibits CCR5-dependent HIV infection in vitro without blocking gp120/CCR5 interaction” (Retrovirology, 2005)
